{"source": "patent US8481597B2", "about": "“Use of (-) (3-trihalomethylphenoxy) (4-halophenyl) acetic acid derivatives for treatment of insulin resistance, type 2 diabetes, hyperlipidemia and hyperuricemia” (Metabolex, Inc., priority 1999, dated 2013)", "key": {"C57BL/6J ob/ob mice": {"tested_on": "C57BL/6J ob/ob mice", "assay": "Glucose lowering of (±) and (−) halofenate analogs in ob/ob mice (Example 12)", "assay_type": "in vivo"}, "CYP1A2": {"target": "T1, CYP1A2 (Homo sapiens, UniProt P05177)", "T1 sequence (P05177 1-516)": "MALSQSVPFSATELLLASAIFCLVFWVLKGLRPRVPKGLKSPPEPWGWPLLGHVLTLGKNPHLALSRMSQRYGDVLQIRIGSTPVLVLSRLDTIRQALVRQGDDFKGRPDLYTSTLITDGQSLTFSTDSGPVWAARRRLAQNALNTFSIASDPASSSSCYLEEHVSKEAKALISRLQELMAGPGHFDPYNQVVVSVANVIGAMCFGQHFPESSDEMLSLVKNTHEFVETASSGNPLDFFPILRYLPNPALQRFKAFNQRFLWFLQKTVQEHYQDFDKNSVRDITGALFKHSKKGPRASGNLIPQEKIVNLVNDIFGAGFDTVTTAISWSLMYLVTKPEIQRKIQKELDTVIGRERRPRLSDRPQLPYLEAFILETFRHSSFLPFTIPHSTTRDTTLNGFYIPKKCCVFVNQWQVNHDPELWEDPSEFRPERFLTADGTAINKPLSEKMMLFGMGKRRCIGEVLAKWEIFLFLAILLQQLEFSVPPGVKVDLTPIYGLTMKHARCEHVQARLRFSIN", "conditions": "both, 30 min"}, "CYP2A6 [1]": {"target": "T2, CYP2A6 (Homo sapiens, UniProt P11509)", "T2 sequence (P11509 1-494)": "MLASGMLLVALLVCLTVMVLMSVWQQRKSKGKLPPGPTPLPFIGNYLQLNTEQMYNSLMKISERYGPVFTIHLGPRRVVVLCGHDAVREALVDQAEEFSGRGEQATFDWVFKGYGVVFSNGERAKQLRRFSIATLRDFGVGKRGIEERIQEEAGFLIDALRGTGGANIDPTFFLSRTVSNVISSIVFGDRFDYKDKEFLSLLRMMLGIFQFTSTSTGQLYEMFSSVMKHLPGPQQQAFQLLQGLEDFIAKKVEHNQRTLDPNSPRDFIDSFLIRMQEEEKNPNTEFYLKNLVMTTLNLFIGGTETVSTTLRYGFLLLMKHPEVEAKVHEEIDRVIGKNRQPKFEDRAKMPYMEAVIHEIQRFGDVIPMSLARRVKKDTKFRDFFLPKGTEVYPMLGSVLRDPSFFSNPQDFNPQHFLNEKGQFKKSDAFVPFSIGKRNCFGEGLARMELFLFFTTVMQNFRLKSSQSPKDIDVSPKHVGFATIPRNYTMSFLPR", "conditions": "for 7-HC Production: both, human, 20 min"}, "CYP2C9": {"target": "CYP2C9 (Homo sapiens, UniProt P11712)", "sequence (P11712 whole entry)": "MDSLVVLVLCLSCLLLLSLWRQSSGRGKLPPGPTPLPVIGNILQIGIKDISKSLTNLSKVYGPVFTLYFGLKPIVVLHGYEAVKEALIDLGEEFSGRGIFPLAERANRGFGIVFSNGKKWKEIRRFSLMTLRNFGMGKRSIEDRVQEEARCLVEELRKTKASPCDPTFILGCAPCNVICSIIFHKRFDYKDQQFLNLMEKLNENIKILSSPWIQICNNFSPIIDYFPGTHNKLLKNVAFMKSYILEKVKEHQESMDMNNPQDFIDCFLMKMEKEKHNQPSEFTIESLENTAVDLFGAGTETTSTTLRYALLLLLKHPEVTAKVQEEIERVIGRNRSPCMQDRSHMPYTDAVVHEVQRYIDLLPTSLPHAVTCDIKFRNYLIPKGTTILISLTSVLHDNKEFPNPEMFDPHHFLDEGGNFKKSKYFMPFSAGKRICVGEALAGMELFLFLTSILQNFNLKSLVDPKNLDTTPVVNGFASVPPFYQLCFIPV", "conditions": "both, human, 40 min"}, "CYP2D6": {"target": "CYP2D6 (Homo sapiens, UniProt P10635)", "sequence (P10635 whole entry)": "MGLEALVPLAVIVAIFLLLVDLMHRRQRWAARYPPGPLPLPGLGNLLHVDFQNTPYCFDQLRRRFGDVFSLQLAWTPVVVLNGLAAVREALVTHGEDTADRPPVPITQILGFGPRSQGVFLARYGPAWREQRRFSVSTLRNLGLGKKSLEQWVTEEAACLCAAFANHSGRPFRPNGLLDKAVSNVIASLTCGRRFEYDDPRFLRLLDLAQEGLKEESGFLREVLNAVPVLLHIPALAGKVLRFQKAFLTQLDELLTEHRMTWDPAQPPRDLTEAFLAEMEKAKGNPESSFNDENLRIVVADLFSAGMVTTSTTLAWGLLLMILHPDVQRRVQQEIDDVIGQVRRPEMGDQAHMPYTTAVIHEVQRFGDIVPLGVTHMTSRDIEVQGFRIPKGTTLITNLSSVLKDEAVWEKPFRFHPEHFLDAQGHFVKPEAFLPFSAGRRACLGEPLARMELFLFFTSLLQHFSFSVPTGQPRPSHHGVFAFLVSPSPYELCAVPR", "conditions": "both, 15 min"}, "CYP3A4": {"target": "CYP3A4 (Homo sapiens, UniProt P08684)", "sequence (P08684 whole entry)": "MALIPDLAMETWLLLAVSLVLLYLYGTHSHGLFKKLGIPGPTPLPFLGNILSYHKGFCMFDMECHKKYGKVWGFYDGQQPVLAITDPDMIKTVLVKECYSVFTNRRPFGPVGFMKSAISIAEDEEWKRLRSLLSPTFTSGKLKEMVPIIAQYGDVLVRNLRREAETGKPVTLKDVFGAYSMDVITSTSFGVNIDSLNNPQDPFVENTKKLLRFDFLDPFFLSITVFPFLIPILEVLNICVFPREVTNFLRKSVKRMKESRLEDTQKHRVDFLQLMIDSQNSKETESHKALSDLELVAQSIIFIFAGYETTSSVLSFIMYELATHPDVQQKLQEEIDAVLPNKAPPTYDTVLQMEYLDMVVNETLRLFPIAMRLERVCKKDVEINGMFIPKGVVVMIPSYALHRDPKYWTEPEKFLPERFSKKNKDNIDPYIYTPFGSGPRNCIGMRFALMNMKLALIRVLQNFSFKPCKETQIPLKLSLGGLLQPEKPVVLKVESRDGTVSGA", "conditions": "both, 10 min"}, "[2]": {"target": "cytochrome P450 2C9 (CYP2C9) (Homo sapiens, UniProt P11712)", "sequence (P11712 whole entry)": "as the sequence (P11712 whole entry) above", "assay": "Inhibition of CYP2C9 tolbutamide hydroxylation in pooled human liver microsomes (Example 7)", "conditions": "ratio of apparent IC50", "procedure": "Tolbutamide hydroxylation activity (100 μM ^14C-tolbutamide; 1 mM NADPH) was assayed in pooled human liver microsomes (0.6 mg protein/ml)) for 60 minutes at 37° C. both with and without test compounds."}, "CYP2A6 [3]": {"target": "T2, CYP2A6", "assay": "Cytochrome P450 isoform inhibition, coumarin, human hepatic microsomes (Example 18)", "conditions": "TRAN 250 μM; 1 μM coumarin; VC 32.0 ± 1.4"}}, "note": "Where two headings read alike, the source gives them in different places.", "data": [{"compound": "O=C(O)C(Oc1cccc(C(F)(F)F)c1)c1ccc(Cl)cc1", "note": "(single isomer, unassigned; (-)) [(−) halofenic acid, (−) 4-chlorophenyl-(3-trifluoromethylphenoxy)-acetic acid]", "values": [{"measurement": "time points with significantly lowered plasma glucose concentrations", "setting": "C57BL/6J ob/ob mice; 125 mg/kg oral once a day", "result": 6, "unit": "h"}, {"measurement": "6 hours Glucose", "setting": "C57BL/6J ob/ob mice; 125 mg/kg oral once a day, 6 hours after first dose", "result": "163.8 ± 11.8", "unit": "mg/dL"}, {"measurement": "Predose Glucose", "setting": "C57BL/6J ob/ob mice; baseline before dosing, group later given 125 mg/kg oral once a day", "result": "312.9 ± 17.7", "unit": "mg/dL"}, {"measurement": "AC Production", "setting": "CYP1A2; 0.33 μM", "result": "116 ± 2", "unit": "pmol/mg protein/min"}, {"measurement": "AC Production", "setting": "CYP1A2; 1 μM", "result": "118 ± 2", "unit": "pmol/mg protein/min"}, {"measurement": "AC Production", "setting": "CYP1A2; 3.3 μM", "result": "119 ± 2", "unit": "pmol/mg protein/min"}, {"measurement": "AC Production", "setting": "CYP1A2; 10 μM", "result": "119 ± 2", "unit": "pmol/mg protein/min"}, {"measurement": "AC Production", "setting": "CYP1A2; 33.3 μM", "result": "119 ± 2", "unit": "pmol/mg protein/min"}, {"measurement": "7-HC Production", "setting": "CYP2A6 [1]; 0.33 μM", "result": "33.3 ± 0.7", "unit": "pmol/mg protein/min"}, {"measurement": "7-HC Production", "setting": "CYP2A6 [1]; 1 μM", "result": "32.6 ± 0.7", "unit": "pmol/mg protein/min"}, {"measurement": "7-HC Production", "setting": "CYP2A6 [1]; 3.3 μM", "result": "32.1 ± 0.7", "unit": "pmol/mg protein/min"}, {"measurement": "7-HC Production", "setting": "CYP2A6 [1]; 10 μM", "result": "33.1 ± 0.7", "unit": "pmol/mg protein/min"}, {"measurement": "7-HC Production", "setting": "CYP2A6 [1]; 33.3 μM", "result": "32.3 ± 0.7", "unit": "pmol/mg protein/min"}, {"measurement": "4-OH TB Production", "setting": "CYP2C9; 0.33 μM", "result": "41.0 ± 0.9", "unit": "pmol/mg protein/min"}, {"measurement": "4-OH TB Production", "setting": "CYP2C9; 1 μM", "result": "38.6 ± 0.5", "unit": "pmol/mg protein/min"}, {"measurement": "4-OH TB Production", "setting": "CYP2C9; 3.3 μM", "result": "34.2 ± 0.2", "unit": "pmol/mg protein/min"}, {"measurement": "4-OH TB Production", "setting": "CYP2C9; 10 μM", "result": "22.7 ± 0.6", "unit": "pmol/mg protein/min"}, {"measurement": "4-OH TB Production", "setting": "CYP2C9; 33.3 μM", "result": "12.7 ± 0.2", "unit": "pmol/mg protein/min"}, {"measurement": "IC50", "setting": "CYP2C9; microsomes", "result": "~11.3", "unit": "µM"}, {"measurement": "DEX Production", "setting": "CYP2D6; 0.33 μM", "result": "107 ± 4", "unit": "pmol/mg protein/min"}, {"measurement": "DEX Production", "setting": "CYP2D6; 1 μM", "result": "110 ± 2", "unit": "pmol/mg protein/min"}, {"measurement": "DEX Production", "setting": "CYP2D6; 3.3 μM", "result": "104 ± 3", "unit": "pmol/mg protein/min"}, {"measurement": "DEX Production", "setting": "CYP2D6; 10 μM", "result": "107 ± 1", "unit": "pmol/mg protein/min"}, {"measurement": "DEX Production", "setting": "CYP2D6; 33.3 μM", "result": "106 ± 4", "unit": "pmol/mg protein/min"}, {"measurement": "6β-OHT Production", "setting": "CYP3A4; 0.33 μM", "result": "1816 ± 12", "unit": "pmol/mg protein/min"}, {"measurement": "6β-OHT Production", "setting": "CYP3A4; 1 μM", "result": "1851 ± 14", "unit": "pmol/mg protein/min"}, {"measurement": "6β-OHT Production", "setting": "CYP3A4; 3.3 μM", "result": "1810 ± 3", "unit": "pmol/mg protein/min"}, {"measurement": "6β-OHT Production", "setting": "CYP3A4; 10 μM", "result": "1819 ± 4", "unit": "pmol/mg protein/min"}, {"measurement": "6β-OHT Production", "setting": "CYP3A4; 33.3 μM", "result": "1816 ± 6", "unit": "pmol/mg protein/min"}, {"measurement": "fold less potent than (+) halofenic acid in inhibiting CYP2C9", "setting": "[2]", "result": "~20", "unit": "fold"}]}, {"compound": "N[C@@H]1C[C@H]1c1ccccc1", "note": "(racemic) [TRAN, tranylcypromine, reference compound]", "values": [{"measurement": "% Inhibition (Coumarin, CYP2A6)", "setting": "CYP2A6 [1]; microsomes", "result": 100, "unit": "%"}, {"measurement": "7-HC Production", "setting": "CYP2A6 [3]", "result": "0.00 ± 0.00", "unit": "pmol/mg protein/min"}]}]}
